Reference: paper PMC9192638, “Compact IF2 allows initiator tRNA accommodation into the P site and gates the ribosome to elongation” (Nature Communications, 2022)

What was measured:
[1] = molecular target: T1, IF2 (initiation factor 2) (Pseudomonas aeruginosa, UniProt Q9HV55); assay: cryo-EM structure; format: binding; settings: pH 7.6, 10 mM MgCl2
T1 construct: gene infB; full-length; N-terminal 6xHis-SMT3 tag removed by Ulp1; expressed in E. coli BL21(DE3) Star; compact model residues 337-835

[2] = molecular target: T2, initiation factor 2 (IF2) from Pseudomonas aeruginosa (Pseudomonas aeruginosa PAO1, UniProt Q9HV55 1-840); assay: cryo-EM structure; rotated 70S-IC with extended IF2-GDPCP (structures II-A and II-B); 2 uM 70 S ribosome, 25 uM mRNA, 10 uM fMet-tRNA, 30 uM IF2, 2 mM GDPCP; 10 mM Hepes 7.6, 60 mM NH4Cl, 15 mM KCl, 10 mM MgCl2; settings: both partners purified
T2 construct: Translation initiation factor IF2, Pseudomonas aeruginosa PAO1; residues modelled in the maps: 248-332 (N2 sub-domain region, extended IF2) and 337-835 (compact IF2); Co-purifies with GDP; GDPCP was added to the complex, so the sample held IF2-GDP (compact) and IF2-GDPCP (extended); also called PaeIF2; IF2-GDP; source: E. coli BL21 (DE3) Star, purified (HisTrap, Ulp1 cleavage, reverse HisTrap, …)
T2 sequence (Q9HV55 whole entry): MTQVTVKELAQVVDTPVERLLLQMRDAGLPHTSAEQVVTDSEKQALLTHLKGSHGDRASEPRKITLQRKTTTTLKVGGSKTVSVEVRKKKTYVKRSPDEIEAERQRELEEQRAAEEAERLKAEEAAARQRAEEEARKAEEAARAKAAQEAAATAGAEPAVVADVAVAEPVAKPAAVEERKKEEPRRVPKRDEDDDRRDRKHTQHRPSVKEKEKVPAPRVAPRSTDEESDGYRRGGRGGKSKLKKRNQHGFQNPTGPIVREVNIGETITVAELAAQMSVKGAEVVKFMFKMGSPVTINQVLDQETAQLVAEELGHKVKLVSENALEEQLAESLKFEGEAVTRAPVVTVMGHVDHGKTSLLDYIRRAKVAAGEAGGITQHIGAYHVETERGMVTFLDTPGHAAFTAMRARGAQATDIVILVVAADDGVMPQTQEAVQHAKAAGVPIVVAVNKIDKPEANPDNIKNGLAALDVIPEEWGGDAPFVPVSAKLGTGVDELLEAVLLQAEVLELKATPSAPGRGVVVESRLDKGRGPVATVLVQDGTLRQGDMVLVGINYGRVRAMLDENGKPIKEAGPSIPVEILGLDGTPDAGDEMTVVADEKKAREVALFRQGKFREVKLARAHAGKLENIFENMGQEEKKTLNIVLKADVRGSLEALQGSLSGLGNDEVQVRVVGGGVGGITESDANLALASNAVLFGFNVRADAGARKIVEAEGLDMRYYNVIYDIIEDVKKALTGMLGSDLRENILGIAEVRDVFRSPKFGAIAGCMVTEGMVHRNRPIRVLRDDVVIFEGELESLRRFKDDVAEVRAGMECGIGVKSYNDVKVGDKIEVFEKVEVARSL

T1 sequence (Q9HV55 whole entry, the tested form may be a part): as the sequence (Q9HV55 whole entry) above

Nc1nc2c(ncn2[C@@H]2O[C@H](COP(=O)(O)OP(=O)(O)CP(=O)(O)O)[C@@H](O)[C@H]2O)c(=O)[nH]1 [GDPCP, β,γ-methyleneguanosine 5’-triphosphate]
cryo-EM structure ([1]; extended IF2 on rotated 70S ribosome initiation complex with mRNA and fMet-tRNA, 2 mM GDPCP added, G-domain nucleotide site with Mg2+): well-defined density for extended IF2 and GDPCP in the G-domain

Nc1nc2c(ncn2[C@@H]2O[C@H](COP(=O)(O)OP(=O)(O)O)[C@@H](O)[C@H]2O)c(=O)[nH]1 [GDP]
cryo-EM structure ([1]; compact IF2 on non-rotated 70S ribosome initiation complex with mRNA and fMet-tRNA, GDP co-purified with IF2, G-domain nucleotide site): visualizes the GDP nucleotide bound in the G-domain

B1: ribosomal protein uL16 (natural protein, UniProt Q9HWE2 1-137, looked up)
chain: MLQPKRTKFRKQMTGHNRGLAHRGSKVSFGEYALKATSRGRLTARQIESARRALTRHVKRGGKIWIRVFPDKPVTKKPLEVRMGKGKGGVEYWVAQIQPGKVLYEIEGVSEELAREAFALAAAKLPLATSFVKRTVM
notes: 50 S ribosomal protein uL16, Pseudomonas aeruginosa PAO1, as part of the 70 S ribosome; Stood in the assay as a subunit of the whole 70 S ribosome with mRNA and fMet-tRNA; source: endogenous, in 70 S ribosomes purified from P. aeruginosa PAO1 (sucrose cushion, sucrose density gradients)
binding result [2]: binds

B2: ribosomal protein uL11 (natural protein, UniProt Q9HWC5 1-143, looked up)
chain: MAKKIQAYIKLQVKAGQANPSPPVGPALGQHGVNIMEFCKAFNAKTQGQEPGLPTPVIITVYSDRSFTFETKSTPAAVLLKKAAGITSGSARPNSQKVGTVTRAQLEEIAKTKQADLTAADLDAAVRTIAGSARSMGLNVEGV
notes: 50 S ribosomal protein uL11, Pseudomonas aeruginosa PAO1, as part of the 70 S ribosome; Stood in the assay as a subunit of the whole 70 S ribosome with mRNA and fMet-tRNA; also called uL11-NTD; source: endogenous, in 70 S ribosomes purified from P. aeruginosa PAO1 (sucrose cushion, sucrose density gradients)
binding result [2]: binds
